Values joined by “and” are separate entries in the source; they are usually repeats but may differ in a detail not shown here. Equal entries are not always repeated.
Legend:
[1] = cited from earlier work
[2] = cited from earlier work; remark: listed apart in the source
[3] = Quantitative urine testing of patients prescribed Latuda for compliance over 5 days (Examples 2-7)
Procedure: The urine of 20 patients who were prescribed 20 mg of Latuda® (lurasidone) was tested for compliance over 5 days (Table 3).
Samples that were deemed invalid based on pH and/or specific gravity (n=7) were not included in calculations. Any drug/metabolite concentration that was less than the LOD/LOQ (5 ng/mL) as noted in Table 3 was also excluded from the calculations.
The urine of 12 patients who were prescribed 40 mg of Latuda® (lurasidone) was tested for compliance over 5 days (Table 5).
Samples that were deemed invalid based on pH and/or specific gravity (n=3) were not included in calculations. Any drug/metabolite concentration that was less than the LOD/LOQ (5 ng/mL) as noted in Table 5 was also excluded from the calculations.
The urine of 2 patients who was prescribed 60 mg of Latuda® (lurasidone) was tested for compliance over 5 days (Table 7).
The urine of 15 patients who were prescribed 80 mg of Latuda® (lurasidone) was tested for compliance over 5 days (Table 9).
Any drug/metabolite concentration that was less than the LOD/LOQ (5 ng/mL) as noted in Table 5 was also excluded from the calculations.
The urine of 1 patient who was prescribed 100 mg of Latuda® (lurasidone) was tested for compliance over 5 days (Table 11).
The urine of 6 patients who were prescribed 120 mg of Latuda® (lurasidone) was tested for compliance over 5 days (Table 13).
Samples that were deemed invalid based on pH and/or specific gravity (n=2) were not included in calculations.

[4] = cited from earlier work; remark: listed apart in the source
CYP3A4 = target: T1, CYP3A4 (Homo sapiens, UniProt P08684); settings: liver; cited from earlier work
T1 construct: host or cells: liver (in vivo metabolism, general statement)
T1 sequence (P08684 whole entry): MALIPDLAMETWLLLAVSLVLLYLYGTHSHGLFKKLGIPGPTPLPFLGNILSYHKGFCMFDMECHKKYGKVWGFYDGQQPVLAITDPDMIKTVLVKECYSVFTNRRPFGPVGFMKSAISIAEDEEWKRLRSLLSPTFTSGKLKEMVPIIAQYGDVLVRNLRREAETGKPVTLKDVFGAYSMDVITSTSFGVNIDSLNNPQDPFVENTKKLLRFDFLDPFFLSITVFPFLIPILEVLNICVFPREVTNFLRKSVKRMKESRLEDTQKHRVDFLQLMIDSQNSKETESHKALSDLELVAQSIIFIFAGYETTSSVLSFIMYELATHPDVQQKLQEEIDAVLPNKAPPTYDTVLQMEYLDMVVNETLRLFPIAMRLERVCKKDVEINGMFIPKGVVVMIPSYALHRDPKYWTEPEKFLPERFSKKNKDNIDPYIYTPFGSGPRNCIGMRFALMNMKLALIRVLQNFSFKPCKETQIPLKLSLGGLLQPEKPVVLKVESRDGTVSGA

[5] = Qualitative identification of lurasidone and metabolites in urine by Q-ToF MS/MS (Example 1); settings: chronic lurasidone doses; for Lurasidone Metabolite Distribution in Human Urine (qualitative identification): individual subjects
Procedure: Urine samples of normally metabolizing human subjects who were known to be taking chronic doses of lurasidone were tested for the presence of lurasidone and eleven metabolites (excluding isomeric metabolites). Each patient sample was analyzed twice to ensure accuracy. Due to the high probability for false identification of isobars, MS/MS data was collected and selectively looked at to add confidence to the identification.

[6] = 20 mg/day, n 53 valid samples, values below LOD/LOQ excluded
[7] = 40 mg/day, n 33 valid samples, values below LOD/LOQ excluded
[8] = 80 mg/day, n 45, values below LOD/LOQ excluded

urine concentration, Maximum Value ([3]; 20 mg/day, n 53 valid samples): 149.00 ng/mL
urine concentration, Median Value ([3]; 20 mg/day, n 53 valid samples): 12.45 ng/mL
urine concentration, Average [3, 6]: 18.38 ng/mL
urine concentration, Minimum Value [3, 6]: 5.70 ng/mL
urine concentration, Maximum Value ([3]; 40 mg/day, n 33 valid samples): 192.10 ng/mL
urine concentration, Median Value ([3]; 40 mg/day, n 33 valid samples): 33.10 ng/mL
urine concentration, Average [3, 7]: 44.23 ng/mL
urine concentration, Minimum Value [3, 7]: 7.20 ng/mL
urine concentration ([3]; 60 mg/day Latuda, Day 1, individual subjects): 16.3 ng/mL
urine concentration ([3]; 60 mg/day Latuda, Day 4, individual subjects): 25.3 ng/mL and 36.8 ng/mL
urine concentration ([3]; 60 mg/day Latuda, Day 5, individual subjects): 50.5 ng/mL
urine concentration, Average ([3]; 60 mg/day, n 6): 30.30 ng/mL
urine concentration, Maximum Value ([3]; 60 mg/day, n 6): 50.50 ng/mL
urine concentration, Median Value ([3]; 60 mg/day, n 6): 31.05 ng/mL
urine concentration, Minimum Value ([3]; 60 mg/day, n 6): 15.60 ng/mL
urine concentration, Maximum Value ([3]; 80 mg/day, n 45): 556.60 ng/mL
urine concentration, Median Value ([3]; 80 mg/day, n 45): 70.00 ng/mL
urine concentration, Average [3, 8]: 120.26 ng/mL
urine concentration, Minimum Value [3, 8]: 10.10 ng/mL
urine concentration, Average ([3]; 100 mg/day, n 3): 73.97 ng/mL
urine concentration, Maximum Value ([3]; 100 mg/day, n 3): 94.90 ng/mL
urine concentration, Median Value ([3]; 100 mg/day, n 3): 64.50 ng/mL
urine concentration, Minimum Value ([3]; 100 mg/day, n 3): 62.50 ng/mL
urine concentration, Average ([3]; 120 mg/day, n 16 valid samples): 95.42 ng/mL
urine concentration, Maximum Value ([3]; 120 mg/day, n 16 valid samples): 260.10 ng/mL
urine concentration, Median Value ([3]; 120 mg/day, n 16 valid samples): 73.60 ng/mL
urine concentration, Minimum Value ([3]; 120 mg/day, n 16 valid samples): 12.40 ng/mL
concentration in urine ([3]; patient prescribed 80 mg/day Latuda, subject II, day 1): 147.1 ng/mL
concentration in urine ([3]; patient prescribed 80 mg/day Latuda, subject II, day 4): 144.8 ng/mL
concentration in urine ([3]; patient prescribed 80 mg/day Latuda, subject II, day 5): 112.7 ng/mL
concentration in urine ([3]; patient prescribed 80 mg/day Latuda, subject eleven, day 1): 556.6 ng/mL
concentration in urine ([3]; patient prescribed 80 mg/day Latuda, subject eleven, day 4): 503.8 ng/mL
concentration in urine ([3]; patient prescribed 80 mg/day Latuda, subject eleven, day 5): 264.0 ng/mL
concentration in urine ([3]; patient prescribed 80 mg/day Latuda, subject fifteen, day 1): 138.5 ng/mL
concentration in urine ([3]; patient prescribed 80 mg/day Latuda, subject fifteen, day 4): 83.8 ng/mL
concentration in urine ([3]; patient prescribed 80 mg/day Latuda, subject fifteen, day 5): 67.6 ng/mL
concentration in urine ([3]; patient prescribed 80 mg/day Latuda, subject five, day 1): 57.3 ng/mL
concentration in urine ([3]; patient prescribed 80 mg/day Latuda, subject five, day 4): 69.6 ng/mL
concentration in urine ([3]; patient prescribed 80 mg/day Latuda, subject five, day 5): 100.6 ng/mL
concentration in urine ([3]; patient prescribed 80 mg/day Latuda, subject four, day 1): 175.2 ng/mL
concentration in urine ([3]; patient prescribed 80 mg/day Latuda, subject four, day 4): 96.4 ng/mL
concentration in urine ([3]; patient prescribed 80 mg/day Latuda, subject four, day 5): 116.3 ng/mL
concentration in urine ([3]; patient prescribed 80 mg/day Latuda, subject nine, day 1): 52.6 ng/mL
concentration in urine ([3]; patient prescribed 80 mg/day Latuda, subject nine, day 4): 43.7 ng/mL
concentration in urine ([3]; patient prescribed 80 mg/day Latuda, subject nine, day 5): 38.9 ng/mL
concentration in urine ([3]; patient prescribed 80 mg/day Latuda, subject nineteen, day 1): 210.7 ng/mL
concentration in urine ([3]; patient prescribed 80 mg/day Latuda, subject nineteen, day 4): 70.4 ng/mL
concentration in urine ([3]; patient prescribed 80 mg/day Latuda, subject nineteen, day 5): 16.1 ng/mL
concentration in urine ([3]; patient prescribed 80 mg/day Latuda, subject one, day 1, values marked ** below LOD/LOQ of 5 ng/mL = negative result, * ion ratio criteria not met): 4.8** ng/mL
concentration in urine ([3]; patient prescribed 80 mg/day Latuda, subject one, day 4): 52.0 ng/mL
concentration in urine ([3]; patient prescribed 80 mg/day Latuda, subject one, day 5): 22.9 ng/mL
concentration in urine ([3]; patient prescribed 80 mg/day Latuda, subject seventeen, day 1): 152.8 ng/mL
concentration in urine ([3]; patient prescribed 80 mg/day Latuda, subject seventeen, day 4): 83.3 ng/mL
concentration in urine ([3]; patient prescribed 80 mg/day Latuda, subject seventeen, day 5): 72.4 ng/mL
concentration in urine ([3]; patient prescribed 80 mg/day Latuda, subject sixteen, day 1): 10.1 ng/mL
concentration in urine ([3]; patient prescribed 80 mg/day Latuda, subject sixteen, day 4): 14.5 ng/mL
concentration in urine ([3]; patient prescribed 80 mg/day Latuda, subject sixteen, day 5): 41.0 ng/mL
concentration in urine ([3]; patient prescribed 80 mg/day Latuda, subject ten, day 1): 40.5 ng/mL
concentration in urine ([3]; patient prescribed 80 mg/day Latuda, subject ten, day 4): 162.5 ng/mL
concentration in urine ([3]; patient prescribed 80 mg/day Latuda, subject ten, day 5): 48.3 ng/mL
concentration in urine ([3]; patient prescribed 80 mg/day Latuda, subject thirteen, day 1): 145.2 ng/mL
concentration in urine ([3]; patient prescribed 80 mg/day Latuda, subject thirteen, day 4): 298.3 ng/mL
concentration in urine ([3]; patient prescribed 80 mg/day Latuda, subject thirteen, day 5): 539.5 ng/mL
concentration in urine ([3]; patient prescribed 80 mg/day Latuda, subject three, day 1): 59.5 ng/mL
concentration in urine ([3]; patient prescribed 80 mg/day Latuda, subject three, day 4): 35.9 ng/mL
concentration in urine ([3]; patient prescribed 80 mg/day Latuda, subject three, day 5): 69.5 ng/mL
concentration in urine ([3]; patient prescribed 80 mg/day Latuda, subject twelve, day 1, values marked ** below LOD/LOQ of 5 ng/mL = negative result): 0.0** ng/mL
concentration in urine ([3]; patient prescribed 80 mg/day Latuda, subject twelve, day 4): 32.9 ng/mL
concentration in urine ([3]; patient prescribed 80 mg/day Latuda, subject twelve, day 5): 43.5 ng/mL
concentration in urine ([3]; patient prescribed 80 mg/day Latuda, subject two, day 1): 23.0 ng/mL
concentration in urine ([3]; patient prescribed 80 mg/day Latuda, subject two, day 4, values marked ** below LOD/LOQ of 5 ng/mL = negative result): 0.1** ng/mL
concentration in urine ([3]; patient prescribed 80 mg/day Latuda, subject two, day 5): 36.7 ng/mL
concentration in urine ([3]; patient prescribed 120 mg/day Latuda, subject eight, day 1): 148.7 ng/mL
concentration in urine ([3]; patient prescribed 120 mg/day Latuda, subject eight, day 4): 260.1 ng/mL
concentration in urine ([3]; patient prescribed 120 mg/day Latuda, subject eight, day 5, specimen validity (creatinine, specific gravity) not acceptable): 57.2 ng/mL
concentration in urine ([3]; patient prescribed 120 mg/day Latuda, subject eighteen, day 1): 23.4 ng/mL
concentration in urine ([3]; patient prescribed 120 mg/day Latuda, subject eighteen, day 4): 27.5 ng/mL
concentration in urine ([3]; patient prescribed 120 mg/day Latuda, subject eighteen, day 5): 12.4 ng/mL
concentration in urine ([3]; patient prescribed 120 mg/day Latuda, subject fourteen, day 1): 102.7 ng/mL
concentration in urine ([3]; patient prescribed 120 mg/day Latuda, subject fourteen, day 4): 87.3 ng/mL
concentration in urine ([3]; patient prescribed 120 mg/day Latuda, subject fourteen, day 5): 59.1 ng/mL
concentration in urine ([3]; patient prescribed 120 mg/day Latuda, subject seven, day 1): 83.9 ng/mL
concentration in urine ([3]; patient prescribed 120 mg/day Latuda, subject seven, day 4): 46.4 ng/mL
concentration in urine ([3]; patient prescribed 120 mg/day Latuda, subject seven, day 5): 63.3 ng/mL
concentration in urine ([3]; patient prescribed 120 mg/day Latuda, subject six, day 1, specimen validity (creatinine) not acceptable): 21.7 ng/mL
concentration in urine ([3]; patient prescribed 120 mg/day Latuda, subject six, day 4, specimen validity (specific gravity) not acceptable): 23.7 ng/mL
concentration in urine ([3]; patient prescribed 120 mg/day Latuda, subject six, day 5): 61.6 ng/mL
concentration in urine ([3]; patient prescribed 120 mg/day Latuda, subject twenty, day 1): 126.2 ng/mL
concentration in urine ([3]; patient prescribed 120 mg/day Latuda, subject twenty, day 4): 150.7 ng/mL
concentration in urine ([3]; patient prescribed 120 mg/day Latuda, subject twenty, day 5): 251.7 ng/mL
detectability in human urine (Example 1) [5]: detected in the majority of the samples
Lurasidone Metabolite Distribution in Human Urine (qualitative identification) ([5]; Run 1): ✓* (5×) and ✓^ (4×)
Lurasidone Metabolite Distribution in Human Urine (qualitative identification) ([5]; Run 2): ✓^ (4×) and ✓* (5×)
Substance: Lurasidone
log P [1]: 5.9
pKa [1]: 7.6
time to steady state serum concentrations ([2]; days of dosing): 7 days
mean elimination half-life ([2]; in vivo): 18 h
urine concentration ([3]; 20 mg/day Latuda, Day 1, individual subjects, ** = below LOD/LOQ 5 ng/mL (negative)): 9.7 ng/mL and 12.7 ng/mL and 9.0 ng/mL and 33.1 ng/mL and 24.6 ng/mL and 6.9 ng/mL and 6.0 ng/mL and 4.4* ** ng/mL and 9.1 ng/mL (2×) and 10.1 ng/mL and 5.7 ng/mL and 7.8 ng/mL and 12.9 ng/mL and 25.8 ng/mL and 13.8 ng/mL and 3.2** ng/mL and 83.1 ng/mL and 33.4 ng/mL and 12.0 ng/mL
urine concentration ([3]; 20 mg/day Latuda, Day 4, individual subjects, ** = below LOD/LOQ 5 ng/mL (negative)): 149.0 ng/mL and 14.3 ng/mL and 18.9 ng/mL and 4.8** ng/mL and 14.0 ng/mL and 5.7 ng/mL and 4.7* ** ng/mL and 7.0 ng/mL (2×) and 2.9* ** ng/mL and 31.3 ng/mL and 13.0 ng/mL and 7.3 ng/mL and 24.3 ng/mL and 4.3** ng/mL and 12.5 ng/mL and 17.5 ng/mL and 5.8 ng/mL and 29.1 ng/mL and 8.0 ng/mL
urine concentration ([3]; 20 mg/day Latuda, Day 5, individual subjects, ** = below LOD/LOQ 5 ng/mL (negative)): 9.6 ng/mL and 8.8 ng/mL and 13.2 ng/mL and 24.4 ng/mL and 26.2 ng/mL and 20.3 ng/mL and 6.5 ng/mL and 6.6 ng/mL and 6.0 ng/mL and 18.6 ng/mL and 12.1 ng/mL and 13.6 ng/mL and 5.4 ng/mL and 10.2 ng/mL and 11.0 ng/mL and 12.4 ng/mL and 5.2 ng/mL and 4.7** ng/mL and 23.2 ng/mL and 10.4 ng/mL
urine concentration ([3]; 40 mg/day Latuda, Day 1, individual subjects, ** = below LOD/LOQ 5 ng/mL (negative)): 30.5 ng/mL and 31.9 ng/mL and 63.9 ng/mL and 25.8 ng/mL and 4.4** ng/mL and 30.6 ng/mL and 9.8 ng/mL and 112.1 ng/mL and 14.0 ng/mL and 11.8 ng/mL and 129.1 ng/mL and 77.1 ng/mL
urine concentration ([3]; 40 mg/day Latuda, Day 4, individual subjects, ** = below LOD/LOQ 5 ng/mL (negative)): 21.7 ng/mL and 25.6 ng/mL and 70.7 ng/mL and 69.3 ng/mL and 26.4 ng/mL and 1.0** ng/mL and 41.3 ng/mL and 14.5 ng/mL and 54.0 ng/mL and 32.8 ng/mL and 12.8 ng/mL and 38.0 ng/mL
urine concentration ([3]; 40 mg/day Latuda, Day 5, individual subjects, ** = below LOD/LOQ 5 ng/mL (negative)): 37.9 ng/mL (2×) and 60.0 ng/mL and 33.4 ng/mL and 40.1 ng/mL and 1.3** ng/mL and 35.8 ng/mL and 7.2 ng/mL and 192.1 ng/mL and 11.3 ng/mL and 7.8 ng/mL and 56.4 ng/mL
excreted in the feces ([4]; excretion studies in humans): 80%
recovered in the urine ([4]; excretion studies in humans): 9%
share of total radioactivity in plasma ([4]; plasma, post oral dosing): 12%
metabolizing enzyme (CYP3A4): metabolized in the liver primarily by CYP3A4

Source: US9606132B2, “Methods of monitoring adherence to lurasidone therapy” (Ameritox, Ltd., priority 2013, dated 2017)
